Like-named read-outs stand apart in the source and are kept apart here.
Experiments:
U373 glioma cells = experiment: MTT test, overall cell growth, U373; type: cell-based, human; conditions: 72 hours of incubation
In short: (§1)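 Glioma (Hs683, T98G, U373) and oesophageal (OE21, OE33) lines seeded at 5,000–8,000 cells/well, treated 24 h later with compound at 1×10^−8 to 1×10^−4 M for 72 h at 37 °C, in sestuplicate.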

[1] = tested on: OE33 oesophageal cancer cells; experiment: MTT test, overall cell growth, OE33; type: cell-based, human
In short: as §1

[2] = tested on: human cancer cell lines (U373, T98G, Hs683, OE21, OE33); experiment: MTT test, mean over the cancer cell lines; type: cell-based
In short: as §1

DYRK1A protein kinase = DYRK1A protein kinase (Homo sapiens (Human), UniProt Q13627); experiment: Radiometric protein kinase assay (33PanQinase Activity Assay); type: biochemical; conditions: 10 concentrations in triplicate, 1 μM ATP; read-out: IC50: Concentration of drug (μM) needed in order to inhibit dyrk1A kinase activity by 50%
Protocol: The IC50 profile of JR212, JR220, JR84, CV12, CV24, and JR95 was determined on DYRK1A protein kinase. […] Compound cv12 was tested in the range from about 5×10^−5 M to about 1.5×10^−9 M in triplicate.
A radiometric protein kinase assay (33PanQinase® Activity Assay) was used for measuring the kinase activity of DYRK1A protein kinase. All kinase assays were performed in 96-well FlashPlates™ from Perkin Elmer (Boston, Mass., USA) in a 50 μl reaction volume. The reaction cocktail was pipetted in four steps in the following order: 20 μl of assay buffer (standard buffer); 5 μl of [γ-33P]-ATP solution (in H2O); 5 μl of test compound (in 10% DMSO); 10 μl of substrate/10 μl of enzyme solution (premixed).
The assay contained 60 mM HEPES-NaOH, pH 7.5, 3 mM MgCl2, 3 mM MnCl2, 3 μM Na-orthovanadate, 1.2 mM DTT, 50 μg/ml PEG20000, 1 μM [γ-^33P]-ATP (approx. 3×10^5 cpm per well), protein kinase, and substrate.
For the determination of inhibitory profiles, DYRK1A protein kinase was used, which was purchased from Invitrogen Corporation. The kinase was expressed in […] as human recombinant GST-fusion protein by means of the baculovirus expression system. According to the data sheet, the purity of the kinase was checked by SDS-PAGE/Coomassie staining and the identity of the kinase was verified by mass spectroscopy. About 5 ng/50 μl (about 0.9 nM) of dyrk1A kinase and about 2000 ng/50 μl of substrate (RBER-CHKtide) are used in each assay.
The reaction cocktails were incubated at 30° C. for 60 minutes. The reaction was stopped with 50 μl of 2% (v/v) H3PO4, plates were aspirated and washed two times with 200 μl 0.9% (w/v) NaCl. Incorporation of ^33P was determined with a microplate scintillation counter (Microbeta, Wallac).
All assays were performed with a BeckmanCoulter/SAGIAN™ Core System.
For each plate, the median value of the cpm of the wells with complete reaction cocktails, but without kinase or compound to be tested, was defined as “low control” (n=8). This value reflects unspecific binding of radioactivity to the plate in the absence of protein kinase but in the presence of the substrate. Additionally, for each plate the median value of the cpm of the wells with the complete reaction cocktail, but without any compound, was taken as the “high control”, i.e., full activity in the absence of any inhibitor (n=8). The difference between high and low control of was taken as 100% activity for each kinase. As part of the data evaluation the “low control” value from a particular plate was subtracted from the “high control” value as well as from all 80 “compound values” of the corresponding plate. The residual activity (in %) for each compound well was calculated by using the following formula: Res. Activity (%)=100×[(cpm of compound−low control)/(high control−low control)].

[3] = Table 4, mean over cell lines, read-out: IC50 μM growth inhibition (MTT test)
[4] = mean over the cancer cell lines, MTT test, read-out: IC50 Mean ± SEM
[5] = Homo sapiens, OE33, 72 hours of incubation
[6] = Homo sapiens, Table 4, mean over cell lines, read-out: IC50 μM growth inhibition (MTT test)
[7] = Homo sapiens, mean over the cancer cell lines, MTT test, read-out: IC50 Mean ± SEM

SMILES | IC50 (U373 glioma cells) | IC50 ([1]; 72 hours of incubation) | IC50 [2, 3] | IC50 [2, 4] | IC50 (DYRK1A protein kinase) | IC50 (U373 glioma cells; Homo sapiens, U373 MG) | IC50 [1, 5] | IC50 [2, 6] | IC50 [2, 7]
COCCOc1ccc2c(c1)[nH]c1c(C)nccc12 [JR220] | 64 ± 4 µM | 66 ± 3 µM | 60 µM | 60 ± 3 µM | 15.5 µM | – | – | – | –
Cc1c2c(cc[n+]1Cc1ccccc1)c1ccc(OCc3ccccc3)cc1n2Cc1ccccc1.[Br-] [CV21/JR95, 1-methyl-2-benzyl-7-benzyloxy-9-benzyl-β-carbolin-2-ium bromide] | – | – | – | – | 21.2 µM | 0.44 ± 0.01 µM | 0.7 ± 0.1 µM | 0.7 µM | 0.7 ± 0.2 µM
Cc1nccc2c1[nH]c1cc(OCc3cccnc3)ccc12 [JR212] | 24 ± 1 µM | 31 ± 2 µM | 29 µM | 29 ± 1 µM | 10 µM | – | – | – | –
Cc1nccc2c3ccc(OCc4ccccc4)cc3n(Cc3ccccc3)c12 [CV9/JR84, 1-methyl-7-benzyloxy-9-benzyl-β-carboline] | – | – | – | – | 16.3 µM | 18 ± 2 µM | 40 ± 4 µM | 31 µM | 31 ± 4 µM
